Experimental data: patent publication US6479435B1, “Diaryl ethers and processes for their preparation and herbicidal and desiccant compositions containing them” (ISK Americas Incorporated, priority 1997, dated 2002)

How the values were obtained:
Assay type in all cases: in vivo
[1] = tested on: Johnsongrass (Sorghum halepense, SORHA); experiment: Pre-emerge greenhouse herbicide test, phytotoxicity rating; details: 14 days after application, rating scale 0-100
Procedure, shortened: (§1)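 Visual 0–100 injury rating (100 = all plants dead) taken 14 days after treatment. Rates of 125–1000 g ai/ha in acetone, 187 l/ha, were sprayed onto soil one day post-sowing; pots were surface-watered to incorporate, then bottom-watered.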

[2] = tested on: barnyardgrass (Echinochloa crusgalli, ECHCG); experiment: as above; details: 14 days after application, rating scale 0-100
Procedure, shortened: as §1

[3] = tested on: common ragweed (Ambrosia artemisiifolia L., AMBEL); experiment: as above; details: 14 days after application, rating scale 0-100
Procedure, shortened: as §1

[4] = tested on: green foxtail (Setaria viridis, SETVI); experiment: as above; details: 14 days after application, rating scale 0-100
Procedure, shortened: as §1

[5] = tested on: ivyleaf morningglory (Ipomoea hederacea, IPOHE); experiment: as above; details: 14 days after application, rating scale 0-100
Procedure, shortened: as §1

[6] = tested on: lambsquarters (Chenopodium album, CHEAL); experiment: as above; details: 14 days after application, rating scale 0-100
Procedure, shortened: as §1

[7] = tested on: large crabgrass (Digitaria sanguinalis, DIGSA); experiment: as above; details: 14 days after application, rating scale 0-100
Procedure, shortened: as §1

[8] = tested on: redroot pigweed (Amaranthus retroflexus, AMARE); experiment: as above; details: 14 days after application, rating scale 0-100
Procedure, shortened: as §1

[9] = tested on: sicklepod (Cassia obtusifolia, CASOB); experiment: as above; details: 14 days after application, rating scale 0-100
Procedure, shortened: as §1

[10] = tested on: velvetleaf (Abutilon theophrasti, ABUTH); experiment: as above; details: 14 days after application, rating scale 0-100
Procedure, shortened: as §1

[11] = tested on: field corn (Zea mays L., var. Dekalb 535, CORN); experiment: Pre-emerge greenhouse test, crop damage rating; details: 14 days after application, rating scale 0-100
Procedure, shortened: as §1

[12] = tested on: upland rice (Oryza sp., var.Tebonnet, RICE); experiment: Pre-emerge greenhouse test, crop damage rating; details: 14 days after application, rating scale 0-100
Procedure, shortened: as §1

[13] = tested on: soybean (Glycine max L., var. Pella 86, SOY); experiment: Pre-emerge greenhouse test, crop damage rating; details: 14 days after application, rating scale 0-100
Procedure, shortened: as §1

[14] = tested on: common ragweed (Ambrosia artemisiifolia L., AMBEL); experiment: Post-emerge greenhouse herbicide test, phytotoxicity rating; details: 14 days after application
Procedure, shortened: (§2)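 Scores use a 0 (no damage) to 100 (complete kill) scale, taken 14 days after a foliar spray. Acetone solutions with 0.25% v/v non-ionic surfactant were applied by track sprayer at 187 l/ha and 63-1000 g ai/ha to bottom-watered 2-3 leaf plants.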

[15] = tested on: Johnsongrass (Sorghum halepense, SORHA); experiment: as above; details: 14 days after application
Procedure, shortened: as §2

[16] = tested on: barnyardgrass (Echinochloa crusgalli, ECHCG); experiment: as above; details: 14 days after application
Procedure, shortened: as §2

[17] = tested on: green foxtail (Setaria viridis, SETVI); experiment: as above; details: 14 days after application
Procedure, shortened: as §2

[18] = tested on: ivyleaf morningglory (Ipomoea hederacea, IPOHE); experiment: as above; details: 14 days after application
Procedure, shortened: as §2

[19] = tested on: lambsquarters (Chenopodium album, CHEAL); experiment: as above; details: 14 days after application
Procedure, shortened: as §2

[20] = tested on: large crabgrass (Digitaria sanguinalis, DIGSA); experiment: as above; details: 14 days after application
Procedure, shortened: as §2

[21] = tested on: redroot pigweed (Amaranthus retroflexus, AMARE); experiment: as above; details: 14 days after application
Procedure, shortened: as §2

[22] = tested on: sicklepod (Cassia obtusifolia, CASOB); experiment: as above; details: 14 days after application
Procedure, shortened: as §2

[23] = tested on: velvetleaf (Abutilon theophrasti, ABUTH); experiment: as above; details: 14 days after application
Procedure, shortened: as §2

[24] = tested on: field corn (Zea mays L., var. Dekalb 535, CORN); experiment: Post-emerge greenhouse test, crop damage rating; details: 14 days after application
Procedure, shortened: as §2

[25] = tested on: upland rice (Oryza sp., var.Tebonnet, RICE); experiment: Post-emerge greenhouse test, crop damage rating; details: 14 days after application
Procedure, shortened: as §2

[26] = tested on: soybean (Glycine max L., var. Pella 86, SOY); experiment: Post-emerge greenhouse test, crop damage rating; details: 14 days after application
Procedure, shortened: as §2

CCN1CC(=O)N(c2cc(Oc3ncccn3)c(Cl)cc2F)C1=O [Compound 8-2]
70: IPOHE phytotoxicity rating (0-100) ([18]; 63 g al/ha) | RICE crop damage rating (0-100) ([25]; 500 g al/ha)
30: AMBEL phytotoxicity rating (0-100) ([14]; 63 g al/ha) | SETVI phytotoxicity rating (0-100) ([17]; 500 g al/ha)
90: phytotoxicity rating DIGSA ([7]; 125 g ai/ha) | crop damage rating RICE ([12]; 500 g ai/ha) | SOY crop damage rating (0-100) ([26]; 500 g al/ha)
10: phytotoxicity rating ECHCG ([2]; 125 g ai/ha) | ECHCG phytotoxicity rating (0-100) ([16]; 63 g al/ha) | SETVI phytotoxicity rating (0-100) ([17]; 63 g al/ha) | SOY crop damage rating (0-100) ([26]; 63 g al/ha)
15: CORN crop damage rating (0-100) ([24]; 500 g al/ha)
95: phytotoxicity rating AMBEL ([3]; 125 g ai/ha) | phytotoxicity rating SETVI ([4]; 125 g ai/ha) | AMBEL phytotoxicity rating (0-100) ([14]; 500 g al/ha)
5: CORN crop damage rating (0-100) ([24]; 63 g al/ha)
60: AMARE phytotoxicity rating (0-100) ([21]; 63 g al/ha) | ABUTH phytotoxicity rating (0-100) ([23]; 63 g al/ha)
50: crop damage rating CORN ([11]; 500 g ai/ha) | ECHCG phytotoxicity rating (0-100) ([16]; 500 g al/ha) | CASOB phytotoxicity rating (0-100) ([22]; 500 g al/ha)
100: phytotoxicity rating SORHA ([1]; 500 g ai/ha) | phytotoxicity rating ECHCG ([2]; 500 g ai/ha) | phytotoxicity rating AMBEL ([3]; 500 g ai/ha) | phytotoxicity rating SETVI ([4]; 500 g ai/ha) | phytotoxicity rating IPOHE ([5]; 125 g ai/ha) | phytotoxicity rating IPOHE ([5]; 500 g ai/ha) | phytotoxicity rating CHEAL ([6]; 125 g ai/ha) | phytotoxicity rating CHEAL ([6]; 500 g ai/ha) | phytotoxicity rating DIGSA ([7]; 500 g ai/ha) | phytotoxicity rating AMARE ([8]; 125 g ai/ha) | phytotoxicity rating AMARE ([8]; 500 g ai/ha) | phytotoxicity rating ABUTH ([10]; 125 g ai/ha) | phytotoxicity rating ABUTH ([10]; 500 g ai/ha) | IPOHE phytotoxicity rating (0-100) ([18]; 500 g al/ha) | CHEAL phytotoxicity rating (0-100) ([19]; 500 g al/ha) | AMARE phytotoxicity rating (0-100) ([21]; 500 g al/ha) | ABUTH phytotoxicity rating (0-100) ([23]; 500 g al/ha)
40: crop damage rating RICE ([12]; 125 g ai/ha)
20: phytotoxicity rating SORHA ([1]; 125 g ai/ha) | crop damage rating SOY ([13]; 500 g ai/ha) | SORHA phytotoxicity rating (0-100) ([15]; 500 g al/ha) | DIGSA phytotoxicity rating (0-100) ([20]; 500 g al/ha) | CASOB phytotoxicity rating (0-100) ([22]; 63 g al/ha)
0: phytotoxicity rating CASOB ([9]; 125 g ai/ha) | crop damage rating CORN ([11]; 125 g ai/ha) | crop damage rating SOY ([13]; 125 g ai/ha) | SORHA phytotoxicity rating (0-100) ([15]; 63 g al/ha) | DIGSA phytotoxicity rating (0-100) ([20]; 63 g al/ha) | RICE crop damage rating (0-100) ([25]; 63 g al/ha)
80: phytotoxicity rating CASOB ([9]; 500 g ai/ha) | CHEAL phytotoxicity rating (0-100) ([19]; 63 g al/ha)

CN1CC(=O)N(c2cc(Oc3ncccn3)c(Cl)cc2F)C1=O [Compound 8-3]
85: CHEAL phytotoxicity rating (0-100) ([19]; 500 g al/ha)
5: crop damage rating CORN ([11]; 500 g ai/ha)
0: phytotoxicity rating SORHA ([1]; 125 g ai/ha) | phytotoxicity rating ECHCG ([2]; 125 g ai/ha) | phytotoxicity rating SETVI ([4]; 125 g ai/ha) | phytotoxicity rating DIGSA ([7]; 125 g ai/ha) | phytotoxicity rating CASOB ([9]; 125 g ai/ha) | phytotoxicity rating CASOB ([9]; 500 g ai/ha) | crop damage rating CORN ([11]; 125 g ai/ha) | crop damage rating RICE ([12]; 125 g ai/ha) | crop damage rating SOY ([13]; 125 g ai/ha) | SORHA phytotoxicity rating (0-100) ([15]; 63 g al/ha) | SORHA phytotoxicity rating (0-100) ([15]; 500 g al/ha) | ECHCG phytotoxicity rating (0-100) ([16]; 63 g al/ha) | ECHCG phytotoxicity rating (0-100) ([16]; 500 g al/ha) | SETVI phytotoxicity rating (0-100) ([17]; 63 g al/ha) | SETVI phytotoxicity rating (0-100) ([17]; 500 g al/ha) | DIGSA phytotoxicity rating (0-100) ([20]; 63 g al/ha) | DIGSA phytotoxicity rating (0-100) ([20]; 500 g al/ha) | CASOB phytotoxicity rating (0-100) ([22]; 63 g al/ha) | CASOB phytotoxicity rating (0-100) ([22]; 500 g al/ha) | CORN crop damage rating (0-100) ([24]; 63 g al/ha) | CORN crop damage rating (0-100) ([24]; 500 g al/ha) | RICE crop damage rating (0-100) ([25]; 63 g al/ha) | RICE crop damage rating (0-100) ([25]; 500 g al/ha)
50: CHEAL phytotoxicity rating (0-100) ([19]; 63 g al/ha) | SOY crop damage rating (0-100) ([26]; 500 g al/ha)
20: phytotoxicity rating AMBEL ([3]; 125 g ai/ha) | phytotoxicity rating ABUTH ([10]; 125 g ai/ha) | AMBEL phytotoxicity rating (0-100) ([14]; 63 g al/ha) | AMARE phytotoxicity rating (0-100) ([21]; 63 g al/ha)
90: phytotoxicity rating DIGSA ([7]; 500 g ai/ha) | IPOHE phytotoxicity rating (0-100) ([18]; 500 g al/ha)
30: crop damage rating RICE ([12]; 500 g ai/ha)
100: phytotoxicity rating CHEAL ([6]; 500 g ai/ha) | phytotoxicity rating AMARE ([8]; 500 g ai/ha)
80: phytotoxicity rating CHEAL ([6]; 125 g ai/ha)
60: phytotoxicity rating AMBEL ([3]; 500 g ai/ha) | phytotoxicity rating IPOHE ([5]; 500 g ai/ha) | AMBEL phytotoxicity rating (0-100) ([14]; 500 g al/ha) | IPOHE phytotoxicity rating (0-100) ([18]; 63 g al/ha)
75: AMARE phytotoxicity rating (0-100) ([21]; 500 g al/ha) | ABUTH phytotoxicity rating (0-100) ([23]; 500 g al/ha)
70: phytotoxicity rating SETVI ([4]; 500 g ai/ha) | phytotoxicity rating ABUTH ([10]; 500 g ai/ha)
40: phytotoxicity rating SORHA ([1]; 500 g ai/ha)
10: phytotoxicity rating ECHCG ([2]; 500 g ai/ha) | phytotoxicity rating IPOHE ([5]; 125 g ai/ha) | phytotoxicity rating AMARE ([8]; 125 g ai/ha) | crop damage rating SOY ([13]; 500 g ai/ha) | ABUTH phytotoxicity rating (0-100) ([23]; 63 g al/ha) | SOY crop damage rating (0-100) ([26]; 63 g al/ha)
